Assays:
bovine insulin fibrils [1] = target: T1, bovine insulin fibrils (Bos taurus, UniProt P01317); assay: Fluorescence response (identification) of bovine insulin fibrils by the dye; assay type: binding; settings: for identification of bovine insulin fibril (fluorescence intensity, dye comparison): 0.05 ml dye + 0.05 ml fibrils, diluted with PBS to 1 ml; for identification effect on bovine insulin fibrils (fluorescence intensity): dye 0.2 mM, dye-insulin 0.025 mM, dye-insulin fibril 0.025 mM, FIG. 3A / FIG. 7
T1 sequence (P01317 25-54 limits assumed): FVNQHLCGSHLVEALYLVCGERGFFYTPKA
T1 sequence (P01317 85-105 limits assumed): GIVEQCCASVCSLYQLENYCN
Description: 2) The bovine insulin fibrils were diluted with PBS to 0 μm, 1 μm, 3 μm, 5 μm, 10 μm, 20 μm and 30 μm respectively. Then the diluted samples were each added with 0.05 mL of […] (1 mM) solution, and tested in a fluorescence spectrometer for the fluorescence intensity (λex=440 nm). […] The results are shown in FIG. 1, where FIG. 1-A was the detection limit of QR on the bovine insulin fibrils; and FIG. 1-B was a linear interval for QR identification of the bovine insulin fibrils.
QR (0.2 mM), QR-insulin (0.025 mM) and QR-insulin fibril (0.025 mM) were determined for fluorescence intensities respectively.
(§1) 0.05 ml of each of QR, ThT, ThS and NR solutions was taken, then added with 0.05 ml of the bovine insulin fibrils, diluted with 0.9 ml of PBS to 1 ml, and then determined for the fluorescence intensity.
The fluorescence intensities of 4-(4-dimethylaminostyryl)quinoline (0.2 mM), 4-(4-dimethylaminostyryl)quinoline-insulin (0.025 mM) and 4-(4-dimethylaminostyryl)quinoline-insulin fibrils (0.025 mM) were determined respectively.

[2] = target: bovine insulin amyloid fibrils (Bos taurus, UniProt P01317); assay: Monitoring the kinetic process of bovine insulin fibrillation by fluorescence; settings: 0.5 mM insulin in NaCl/HCl pH 1.6, samples at different time points, QR 1 mM 0.05 mL; FIG. 3B
bovine insulin amyloid fibrils, sequence (P01317 25-54 limits assumed): as the sequence (P01317 25-54 limits assumed) above
Description: As the mechanism of amyloid fibril-related disease was still being explored, and the kinetic process of the amyloid fibrils might provide relevant information for the mechanism, the kinetic process of the formation of the bovine insulin amyloid fibrils was monitored with QR. […] Three duplicate samples were made for each group of samples, and all of the above samples were determined on a fluorescence spectrometer for fluorescence intensities.

lysozyme fibrils = lysozyme fibrils (Gallus gallus, UniProt P00698); assay: Fluorescence identification of lysozyme fibrils; assay type: binding; settings: lysozyme 0.1 mM fibrillated at 65° C. for 180 min; FIG. 3C
lysozyme fibrils, sequence (P00698 19-147): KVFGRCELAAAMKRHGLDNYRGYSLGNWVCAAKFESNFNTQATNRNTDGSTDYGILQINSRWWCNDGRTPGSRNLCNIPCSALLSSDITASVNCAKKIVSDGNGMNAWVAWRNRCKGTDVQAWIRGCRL
Description: Formulation of a glycine/NaCl buffer solution: the pH value of the glycine/NaCl aqueous solution was adjusted to 2.0 with HCl, where the concentration of sodium chloride was 80 mM and the concentration of glycine was 70 mM.
The lysozyme (0.1 mM) was dissolved in a glycine/NaCl buffer solution for fibrillation at 65° C. under magnetic stirring at a rotation rate of 220 rmp for 180 min. The fluorescence intensities of QR, QR-lysozyme and QR-lysozyme fibrils were determined respectively.

lysozyme amyloid fibrils = lysozyme amyloid fibrils (Gallus gallus, UniProt P00698); assay: Monitoring the kinetic process of lysozyme fibrillation by fluorescence; settings: lysozyme 0.1 mM in glycine/NaCl pH 2.0, samples at different time points; FIG. 3D
lysozyme amyloid fibrils, sequence (P00698 19-147): as above
Description: The kinetic process of the formation of the lysozyme amyloid fibrils was monitored with QR. […] Three duplicate samples were made for each group of samples, and all of the above samples were determined on a fluorescence spectrometer for fluorescence intensities.

bovine insulin [3] = target: T2, bovine insulin (Bos taurus, UniProt P01317); assay: Isothermal titration calorimetry (ITC) of dyes with bovine insulin; assay type: binding; settings: 25° C., insulin 0.25 mM, dyes 0.01 mM, FIG. 4
T2 sequence (P01317 25-54 limits assumed): as the sequence (P01317 25-54 limits assumed) above
Description: Isothermal titration calorimetry (ITC): the bovine insulin was diluted to a final concentration of 0.25 mM, the QR, ThT, ThS, NR were each diluted to a final concentration of 0.01 mM, and then the aforementioned dyes were titrated with the bovine insulin at 25° C., where the dye was added dropwise into a sample chamber containing a solution of the bovine insulin through an automatically-controlled rotary syringe. At the same time, a blank test was carried out, where dye solutions with equal concentration and equal volume were added dropwise into ultra-pure water, and dilution heat was deducted to obtain a binding constant.

bovine insulin fibrils [4] = target: T1, bovine insulin fibrils; assay: QR replacement of a conventional probe bound to bovine insulin fibrils; assay type: binding; settings: ThS or NR bound first, then QR added, FIGS. 5B-5D
Description: as §1
Since the binding constant of binding between QR and the bovine insulin is the largest, ThT, ThS, and NR were first used to bind to the bovine insulin fibrils for fluorescence determination, then QR was added for a replacement reaction.

insulin fibril = insulin fibril (Bos taurus, UniProt P01317); assay: Photobleaching experiment under ultraviolet light (365 nm); assay type: physicochemical, bovine; settings: UV 365 nm, insulin fibril 0.025 mM, dyes 0.05 mm, measured every 30 minutes; FIG. 6
insulin fibril, sequence (P01317 25-54 limits assumed): as above
Description: A photobleaching experiment was carried out under ultraviolet light (365 nm). An insulin fibril (0.025 mM) was mixed with QR, ThT, ThS and NR respectively, with the concentrations of all dyes being 0.05 mm. The mixtures were placed under an ultraviolet lamp (365 nm) and measured for fluorescence every 30 minutes.

bovine insulin [5] = target: T2, bovine insulin; assay: Raman (SERS) study of the manner of binding between QR and bovine insulin; settings: SERS on silver sol, 532 nm, QR 0.01 mM, bovine insulin 0.01 mM; FIG. 2
Description: The manner of binding between QR and the bovine insulin was studied by using a Raman spectrometer with an excitation line of a laser model of 532 nm. First, a silver sol was synthesized as a SERS (surface-enhancement raman scattering) substrate. The synthesized silver nanoparticles were respectively added with the bovine insulin (0.01 mM), QR (0.01 mM) and a mixed sample of them, for detection.

| Molecule | identification of bovine insulin fibril (fluorescence intensity, dye comparison) (bovine insulin fibrils [1]; FIG. 5-A) | identification effect on bovine insulin fibrils (fluorescence intensity) (bovine insulin fibrils [1]) | fluorescence intensity of dye + insulin fibrils with increase of the illumination time (photostability) (insulin fibril) | further results |
| --- | --- | --- | --- | --- |
| CC[n+]1c(/C=C/c2ccc(N(C)C)cc2)ccc2ccccc21 [QR, quinaldine red] | could well identify the bovine insulin fibril | good identification effect | remained basically unchanged | linear range of fluorescence response to bovine insulin fibrils (bovine insulin fibrils [1]; fibrils diluted with PBS to 0-30 μm, fluorescence spectrometer, FIG. 1): 0-30 μm; fluorescence intensity compared with the other dyes (bovine insulin fibrils [1]; red light region, FIG. 5-A): certain advantages of the fluorescence intensity in the red light region; detection of the dynamic process of bovine insulin fibrillation [2]: could well detect the dynamic process of bovine insulin fibrillation; identification effect on lysozyme fibrils (fluorescence intensity) (lysozyme fibrils): good identification effect; detection of the dynamic process of lysozyme fibrillation (lysozyme amyloid fibrils): could well detect the dynamic process of lysozyme fibrillation; binding constant of binding with the bovine insulin (comparison among dyes) (bovine insulin [3]): largest binding constant; replacement of ThT, ThS, NR bound to bovine insulin fibrils (bovine insulin fibrils [4]): replacement effect was obvious; Raman signal between 900-1100 cm-1 (bovine insulin [5]): the signal for QR-insulin was disappeared |
| CN(C)c1ccc(C=Cc2ccnc3ccccc23)cc1 [4-(4-dimethylaminostyryl)quinoline] | – | good identification effect | – | – |
| CCN(CC)c1ccc2nc3c4ccccc4c(=O)cc-3oc2c1 [NR, nile red, reference compound] | could well identify the bovine insulin fibril | – | decreased significantly | – |
| Cc1ccc2c(c1)sc(-c1ccc(N(C)C)cc1)[n+]2C.[Cl-] [ThT, Thioflavin T, reference compound] | could well identify the bovine insulin fibril | – | decreased significantly | – |
| Thioflavin S [ThS, reference compound] | could well identify the bovine insulin fibril | – | decreased significantly | – |

From patent US20210088529A1, “USE OF QUINALDINE RED AND DERIVATIVES THEREOF IN PREPARATION OF KIT FOR DETECTING AMYLOID FIBRILS” (Jilin University, priority 2019, published 2021)
